Read-outs that look alike come from different tables or passages of the source.
Molecular target: T1, human recombinant COX2 (hCOX2) (UniProt P35354)
T1 sequence (P35354 1-604): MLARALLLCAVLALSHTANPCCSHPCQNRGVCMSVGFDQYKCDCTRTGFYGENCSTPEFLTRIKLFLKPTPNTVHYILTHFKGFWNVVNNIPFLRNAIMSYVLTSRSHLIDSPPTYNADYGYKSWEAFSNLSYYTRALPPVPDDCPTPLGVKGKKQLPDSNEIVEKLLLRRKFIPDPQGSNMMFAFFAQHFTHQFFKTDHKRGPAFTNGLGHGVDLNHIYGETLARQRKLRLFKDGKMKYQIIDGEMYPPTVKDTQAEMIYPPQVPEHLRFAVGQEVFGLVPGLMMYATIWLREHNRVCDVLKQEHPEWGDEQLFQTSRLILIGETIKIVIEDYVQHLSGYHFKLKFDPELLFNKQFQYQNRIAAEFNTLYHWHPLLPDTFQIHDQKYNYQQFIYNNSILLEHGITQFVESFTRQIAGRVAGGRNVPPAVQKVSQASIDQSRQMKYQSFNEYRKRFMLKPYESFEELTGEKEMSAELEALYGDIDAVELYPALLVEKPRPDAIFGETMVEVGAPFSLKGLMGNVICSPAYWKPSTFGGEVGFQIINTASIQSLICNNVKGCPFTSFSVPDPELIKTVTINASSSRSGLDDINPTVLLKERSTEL
Test: LCMS-based COX2 enzymatic inhibition assay (PGE2 quantification)
Assay type: biochemical
Set-up: COX2 2 minutes pge2/pge2d4 area ratio Avg; other: 2 minutes; readout pge2/pge2d4 area ratio; average; COX2 2 minutes pge2/pge2d4 area ratio Avg; LLE; average LLE; COX2 2 minutes pge2 area (counts) Avg; readout pge2 area (counts); other: 2 min; "ovine COX2 (oCOX2), human recombinant COX2 (hCOX2)"
Conditions: for COX2 2 minutes pge2/pge2d4 area ratio Avg. LLE / COX2 2 minutes pge2 area (counts) Avg. LLE / COX2 10 minutes pge2 area (counts) Avg. LLE: average LLE; for IC50: average
Procedure, shortened: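 PGE2 formed from arachidonic acid (final 5 μM, 2 min) was measured by LC-MS-MS against DMSO controls. Enzyme (oCOX-1 0.1 μg or hCOX2 0.2 μg) with hematin/epinephrine cofactors at pH 8.0 was given 10 min at 37 °C with compound first. Twelve-point curves run three times gave IC50.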

[1] = 2 minutes, readout pge2/pge2d4 area ratio
[2] = 2 minutes, readout pge2/pge2d4 area ratio, read-out: COX2 2 minutes pge2/pge2d4 area ratio Avg. IC50
[3] = 2 minutes, readout pge2 area (counts)
[4] = 2 minutes, readout pge2 area (counts), read-out: COX2 2 minutes pge2 area (counts) Avg. IC50
[5] = read-out: COX2 2 minutes pge2/pge2d4 area ratio Avg. IC50 (microM), 2 minutes, readout pge2/pge2d4 area ratio
[6] = 10 minutes, readout pge2 area (counts)
[7] = 10 minutes, readout pge2 area (counts), read-out: COX2 10 minutes pge2 area (counts) Avg. IC50

IC50 [2]	Structure (SMILES)	COX2 2 minutes pge2/pge2d4 area ratio Avg. LLE [1]	COX2 2 minutes pge2 area (counts) Avg. LLE [3]	IC50 [4]	IC50 [5]	COX2 10 minutes pge2 area (counts) Avg. LLE [6]	IC50 [7]
4.81 µM	CS(=O)(=O)c1ccc(-c2nc(NCc3cccs3)ccc2S(C)(=O)=O)cc1 [Compound 265]	2.641	2.624				
4.84 µM	CS(=O)(=O)c1ccc(-c2cccc([S@@+]([O-])Cc3cccs3)n2)cc1 [Compound 266]	2.95	2.934				
	CS(=O)(=O)c1ccc(-c2ccnc(OCc3cccs3)c2)cc1 [Compound 267]	1.454	1.6998	2.95 µM	5.2 µM		
	CS(=O)(=O)c1ccc(-c2cc(S(C)(=O)=O)cc(NCc3cccs3)n2)cc1 [Compound 268]	2.624	2.624		5.2 µM		
	COc1cc(S(C)(=O)=O)ccc1-c1cncc(NCc2ccoc2)n1 [Compound 272]	3.674	3.674		5.2 µM		
	CS(=O)(=O)c1ccc(-c2cncc(OCC3CC3)n2)cc1 [Compound 273]	3.734	3.734		5.2 µM		
	CS(=O)(=O)c1ccc(-c2cncc(OC[C@@H]3CCCO3)n2)cc1 [Compound 275]	4.054	4.054		5.2 µM		
	Cc1coc(C(=O)Nc2cccc(-c3ccc(S(C)(=O)=O)cc3)n2)c1 [Compound 276]	2.554	2.659	4.08 µM	5.2 µM		
5.2 µM	CS(=O)(=O)c1ccc(-c2cc(NCc3ccco3)ncn2)cc1 [Compound 277]						
	CN(C)c1cncc(-c2ccc(S(C)(=O)=O)cc2)n1 [Compound 278]	4.524	4.672	3.7 µM	5.2 µM	4.674	3.68 µM
	CS(=O)(=O)c1ccc(-c2cncc(NCc3ncc[nH]3)n2)cc1 [Compound 279]	4.334	4.334		5.2 µM		
	CCCCOc1cncc(-c2ccc(S(C)(=O)=O)cc2)n1 [Compound 280]	3.204			5.2 µM	4.508	0.258 µM
5.2 µM	CS(=O)(=O)c1ccc(-c2cccc(C(=O)Nc3cccs3)n2)cc1 [Compound 281]	2.264					
	CSc1ccc(-c2cccc(NCc3ccco3)n2)cc1 [Compound 282]	1.004	1.004		5.2 µM		
	CS(=O)(=O)c1ccc(-c2ccnc(NCc3ccco3)c2)cc1 [Compound 283]				5.2 µM		
	CS(=O)(=O)c1ccc(-c2cccc([C@H](O)Cc3cccs3)n2)cc1 [Compound 284]	2.424	2.424		5.2 µM		
	Cc1cccc(COc2cncc(-c3ccc(S(C)(=O)=O)cc3)n2)c1 [Compound 285]	2.514	2.514		5.2 µM		
	CS(=O)(=O)c1ccc(-c2cncc(N3CCOCC3)n2)cc1 [Compound 286]	5.044			5.2 µM	5.772	0.974 µM
	CN1CCN(c2cncc(-c3ccc(S(C)(=O)=O)cc3)n2)CC1 [Compound 287]	5.044	5.044		5.2 µM	5.574	1.54 µM
	CS(=O)(=O)c1ccc(-c2cnc3cn(Cc4cccs4)nc3n2)cc1 [Compound 288]	2.844	2.844		5.2 µM		

Source: patent US20220348590A1, “CYCLOOXYGENASE-2 INHIBITORS AND USES THEREOF” (The Board Institute, Inc., priority 2019, published 2022)
